Laboratory results as given in PMC9268102, “Design, Synthesis and Biological Evaluation of 1,3,5-Triazine Derivatives Targeting hA1 and hA3 Adenosine Receptor” (Molecules, 2022).
“And” between values parts separate entries of the source, which are not always exact repeats. Identical values can stand only once. Like-named read-outs stand apart in the source and are kept apart here.

Key:
hA1 AR [1] = biological target: T1, hA1 AR (Homo sapiens, UniProt P30542); test: Radioligand competition binding assay at hA1 AR; details: for Percentage Inhibition (%) at 10 μM, hA1 AR / inhibition at 10 µM: 10 μM compound; for Percentage Inhibition (%) at 10 μM, hA1 AR / inhibition at 10 µM / Ki: [3H]DPCPX, CHO cells; for inhibition at 10 µM: read-out: Percentage Inhibition (%) at 10 μM, hA1 AR
T1 construct: host or cells: CHO-A1 (CHO cells expressing hA1 AR)
T1 sequence (P30542 1-326): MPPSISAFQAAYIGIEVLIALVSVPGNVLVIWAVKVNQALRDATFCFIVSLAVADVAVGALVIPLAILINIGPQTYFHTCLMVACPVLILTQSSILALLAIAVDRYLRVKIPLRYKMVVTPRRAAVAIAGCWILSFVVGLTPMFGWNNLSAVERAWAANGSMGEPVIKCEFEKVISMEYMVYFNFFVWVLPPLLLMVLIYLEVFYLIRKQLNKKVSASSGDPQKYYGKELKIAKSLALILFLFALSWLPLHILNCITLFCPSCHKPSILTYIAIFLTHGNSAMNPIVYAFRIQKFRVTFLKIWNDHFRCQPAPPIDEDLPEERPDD
Method: (§1) All the synthesized compounds were screened with radioligand binding assays at hARs. First, the percentage of inhibition was measured by treatment of each hAR subtype with 10 μM of each compound (Table 1).
(§2) hA1, hA2A, and hA3 AR competition binding experiments were carried out in a multiscreen GF/C 96-well plate (Millipore, Madrid, Spain) pretreated with binding buffer (Hepes 20 mM, NaCl 100 mM, MgCl2 10 mM, 2 U/mL adenosine deaminase, pH = 7.4 for hA1 AR; Tris-HCl 50 mM, EDTA 1 mM, MgCl2 10 mM, 2 U/mL adenosine deaminase, pH = 7.4 for hA2A AR; and Tris-HCl 50 mM, EDTA 1 mM, MgCl2 5 mM, 2 U/mL adenosine deaminase, pH = 7.4 for hA3 AR, respectively). In each well was incubated 5 µg of membranes from Euroscreen CHO-A1 cell line, 5µg of membranes from Hela-A2A cell line, or 30µg of membranes from Hela-A3 cell line and prepared in laboratory: 1 nM [^3H]-DPCPX (140 Ci/mmol, 1 mCi/Ml, Perkin Elmer NET974001MC) for hA1 AR; 1 nM [^3H]-ZM241385 (50 Ci/mmol, 1 mCi/mL, ARC-ITISA 0884) for hA2A AR; and 10 nM [^3H]-NECA (29.6 Ci/mmol, 1 mCi/mL, Perkin Elmer NET811250UC) for hA3 AR, respectively; and the compounds studied according to standard protocol. Non-specific binding was determined in the presence of R-PIA 10 µM (Sigma P4532) for hA1 AR; of NECA 50 µM (Sigma E2387) for hA2A AR; and of R-PIA 100 µM (Sigma P4532) for hA3 AR, respectively. The reaction mixture (Vt: 200 µL/well) was incubated at 25 °C for 60 min (hA1 AR), 30min (hA2A AR), or 180min (hA3 AR); whereafter it was filtered and washed four times (hA1 and hA2A AR) or six times (hA3 AR) with 250 μL wash buffer (Hepes 20 mM, NaCl 100 mM, MgCl2 10 mM pH = 7.4, for hA1 AR; Tris-HCl 50 mM, EDTA 1 mM, MgCl2 10 mM, pH = 7.4, for hA2A AR; and Tris-HCl 50mM pH = 7.4, for hA3 AR, respectively) before being measured in a microplate beta scintillation counter (MicrobetaTrilux, PerkinElmer, Madrid, Spain).

hA2A AR [2] = biological target: T2, hA2A AR (Homo sapiens, UniProt P29274); test: Radioligand competition binding assay at hA2A AR; details: 10 μM compound, [3H]ZM241385, Hela cells; for inhibition at 10 µM: read-out: Percentage Inhibition (%) at 10 μM, hA2A AR
T2 construct: expressed in transfected cells; host or cells: Hela-A2A cell line
Method: as §1, §2

hA2B AR = biological target: T3, hA2B AR (Homo sapiens, UniProt P29275); test: Radioligand competition binding assay at hA2B AR; details: 10 μM compound; [3H]DPCPX; HEK-293 cells; read-out: Percentage Inhibition (%) at 10 μM, hA2B AR
T3 construct: host or cells: HEK-A2B (HEK-293T-A2B) cell line
T3 sequence (P29275 1-332): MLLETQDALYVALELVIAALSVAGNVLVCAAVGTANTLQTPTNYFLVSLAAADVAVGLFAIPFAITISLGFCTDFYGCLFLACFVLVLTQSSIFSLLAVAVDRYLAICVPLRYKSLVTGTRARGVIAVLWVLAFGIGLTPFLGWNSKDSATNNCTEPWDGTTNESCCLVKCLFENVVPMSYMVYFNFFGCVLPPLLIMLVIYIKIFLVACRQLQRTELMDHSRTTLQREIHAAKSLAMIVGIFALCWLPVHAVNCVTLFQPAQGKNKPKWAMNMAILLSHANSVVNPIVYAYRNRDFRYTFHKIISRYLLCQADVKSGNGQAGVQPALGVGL
Method: as §1
hA2B AR competition binding experiments were carried out in a multiscreen GF/C 96-well plate. In each well was incubated 25 µg of membranes from Euroscreen HEK-A2B cell line and prepared in laboratory, 25 nM [^3H]-DPCPX (140 Ci/mmol, 1 mCi/mL, Perkin Elmer NET974001MC) and compounds studied according to standard protocol. Non-specific binding was determined in the presence of NECA 1000 µM (Sigma E2397). The reaction mixture (Vt: 250 µL/well) was incubated at 25°C for 30 min, 200 µL was transferred to GF/C 96-well plate (Millipore, Madrid, Spain), and pretreated with binding buffer (Tris-HCl 50 Mm, EDTA 1 mM, MgCl2 5 mM, Bacitracin […], adenosine deaminase 2 U/Ml, pH = 6.5). It was then filtered and washed four times with 250 μL wash buffer (Tris-HCl 50 mM, EDTA 1 mM, MgCl2 5 mM, pH = 6.5), before being measured in a microplate beta scintillation counter (MicrobetaTrilux, PerkinElmer, Madrid, Spain).

hA3 AR = biological target: T4, hA3 AR (Homo sapiens, UniProt P0DMS8); test: Radioligand competition binding assay at hA3 AR; set-up: expressed in transfected cells; host or cells: Hela-A3 cell line; details: [3H]NECA; for inhibition at 10 µM / Percentage Inhibition (%) at 10 μM, hA3 AR: 10 μM compound; for inhibition at 10 µM: read-out: Percentage Inhibition (%) at 10 μM, hA3 AR
T4 sequence (P0DMS8 1-318): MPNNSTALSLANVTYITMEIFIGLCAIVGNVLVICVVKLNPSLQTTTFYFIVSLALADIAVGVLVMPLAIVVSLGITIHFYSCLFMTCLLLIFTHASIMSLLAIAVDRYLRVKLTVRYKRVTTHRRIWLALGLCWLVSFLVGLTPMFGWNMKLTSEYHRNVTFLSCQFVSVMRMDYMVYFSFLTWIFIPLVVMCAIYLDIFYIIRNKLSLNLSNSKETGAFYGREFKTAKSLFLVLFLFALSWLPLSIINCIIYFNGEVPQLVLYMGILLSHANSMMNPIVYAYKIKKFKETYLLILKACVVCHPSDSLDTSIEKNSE
Method: as §1, §2

hA2A AR [3] = biological target: T2, hA2A AR; details: cited from earlier work
hA1 AR [4] = biological target: T1, hA1 AR; details: read-out: Ki at hA1AR; cited from earlier work

T2 sequence (P29274 whole entry): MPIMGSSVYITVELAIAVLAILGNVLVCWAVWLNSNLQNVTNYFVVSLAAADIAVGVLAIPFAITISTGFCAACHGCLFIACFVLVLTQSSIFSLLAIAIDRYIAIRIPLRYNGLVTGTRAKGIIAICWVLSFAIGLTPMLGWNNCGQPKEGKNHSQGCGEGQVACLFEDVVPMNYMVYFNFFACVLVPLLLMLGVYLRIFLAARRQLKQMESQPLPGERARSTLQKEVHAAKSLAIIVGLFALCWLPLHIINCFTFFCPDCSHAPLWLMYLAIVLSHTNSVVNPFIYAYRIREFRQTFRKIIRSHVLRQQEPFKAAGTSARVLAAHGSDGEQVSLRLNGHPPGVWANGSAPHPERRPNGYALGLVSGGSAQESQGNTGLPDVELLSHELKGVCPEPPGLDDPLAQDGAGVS

Percentage Inhibition (%) at 10 μM, hA1 AR (hA1 AR [1]; 10 µM) [%] | inhibition at 10 µM (hA1 AR [1]) [%] | Ki (hA1 AR [1]) [nM] | inhibition at 10 µM (hA2A AR [2]) [%] | inhibition at 10 µM (hA2B AR) [%] | inhibition at 10 µM (hA3 AR) [%] | Percentage Inhibition (%) at 10 μM, hA3 AR (hA3 AR) [%] | Ki (hA3 AR) [nM] | Percentage Inhibition (%) at 10 μM, hA1 AR (hA1 AR [1]) | Selectivity (hA1 AR:hA3 AR) (hA1 AR [1]; ratio of Ki hA1 AR to Ki hA3 AR) | Percentage Inhibition (%) at 10 μM, hA2A AR (hA2A AR [2]; 10 µM) [%] | Structure (SMILES) | Selectivity hA1/hA2AAR (hA2A AR [3]) | Ki (hA2A AR [3]; read-out: Ki at hA2AAR) [nM] | Ki (hA1 AR [4]) [nM]
99 ± 1 | > 95 | 116 | 80 ± 4 | 47 ± 2 | 91 ± 1 | – | – | – | – | – | Cc1ccc(Nc2nc(N)nc(-c3ccc(O)cc3)n2)c(C)c1 [Compound 9g, 4-{4-amino-6-[(2,4-dimethylphenyl)amino]-1,3,5-triazin-2-yl}phenol] | – | – | –
– | 28 ± 1 | – | 28 ± 3 | 44 ± 4 | 38 ± 1 | – | – | – | – | – | Nc1nc(Nc2ccc(N3CCCCC3)cc2)nc(-c2ccc(O)cc2)n1 [Compound 9f, 4-(4-amino-6-{[4-(piperidin-1-yl)phenyl]amino}-1,3,5-triazin-2-yl)phenol] | – | – | –
– | – | – | – | – | – | – | – | – | – | – | Nc1nc(NCCc2ccc(O)cc2)nc(Nc2nnc(-c3ccc(Cl)cc3)s2)n1 [Compound 5] | 11.66 | 44.6 | 520
– | 99 ± 1 | 69.7 | 84 ± 4 | 62 ± 2 | 93 ± 1 | – | – | – | – | – | COc1cc(Nc2nc(N)nc(-c3ccc(O)cc3)n2)cc(OC)c1 [Compound 9b, 4-{4-amino-6-[(3,5-dimethoxyphenyl)amino]-1,3,5-triazin-2-yl}phenol] | – | – | –
– | 69 ± 2 | – | 40 ± 5 | 74 ± 1 | > 95 | 95 ± 1 | 1260 | – | – | – | Nc1nc(Nc2cccc(C(F)(F)F)c2)nc(-c2ccc(O)cc2)n1 [Compound 9d, 4-(4-amino-6-{[3-(trifluoromethyl)phenyl]amino}-1,3,5-triazin-2-yl)phenol] | – | – | –
96 ± 3 | > 95 | 872 | 58 ± 3 | 42 ± 2 | 92 ± 1 | – | – | – | – | – | Cc1cc(C)cc(Nc2nc(N)nc(-c3ccc(O)cc3)n2)c1 [Compound 9e, 4-{4-amino-6-[(3,5-dimethylphenyl)amino]-1,3,5-triazin-2-yl}phenol] | – | – | –
– | 53 ± 1 | – | 57 ± 2 | 72 ± 6 | 83 ± 1 | – | – | inactive | – | – | COc1ccc(Nc2nc(N)nc(-c3ccc(F)c([N+](=O)[O-])c3)n2)cc1F [Compound 11i, 6-(4-fluoro-3-nitrophenyl)-N^2-(3-fluoro-4-methoxyphenyl)-1,3,5-triazine-2,4-diamine] | – | – | –
– | 48 ± 4 | – | 81 ± 1 | 27 ± 6 | 60 ± 1 | – | – | – | – | – | COc1ccc(Nc2nc(N)nc(-c3ccc(OC(F)(F)F)cc3)n2)cc1F [Compound 11c, N^2-(3-fluoro-4-methoxyphenyl)-6-[4-(trifluoromethoxy)phenyl]-1,3,5-triazine-2,4-diamine] | – | – | –
– | 99 ± 1 | 139 | 58 ± 1 | 72 ± 2 | > 95 | 97 ± 1 | 55.5 | – | 2.5 and 2.51 | 56 ± 3 | COc1ccc(Nc2nc(N)nc(-c3ccc(O)cc3)n2)cc1F [Compound 9a, 4-{4-amino-6-[(3-fluoro-4-methoxyphenyl)amino]-1,3,5-triazin-2-yl}phenol] | – | – | –
– | 52 ± 1 | – | 35 ± 6 | 55 ± 2 | 85 ± 1 | – | – | – | – | – | COC(=O)c1ccc(-c2nc(N)nc(Nc3ccc(OC)c(F)c3)n2)cc1 [Compound 11f, methyl-4-{4-amino-6-[(3-fluoro-4-methoxyphenyl)amino]-1,3,5-triazin-2-yl}benzoate] | – | – | –
– | 56 ± 1 | – | 48 ± 6 | 35 ± 2 | 78 ± 3 | – | – | – | – | – | CCOC(=O)c1ccc(-c2nc(N)nc(Nc3ccc(OC)c(F)c3)n2)cc1 [Compound 11g, ethyl-4-{4-amino-6-[(3-fluoro-4-methoxyphenyl)amino]-1,3,5-triazin-2-yl}benzoate] | – | – | –
– | 88 ± 1 | – | 26 ± 5 | 66 ± 6 | 79 ± 1 | – | – | inactive | – | – | COc1ccc(Nc2nc(N)nc(-c3cc(F)c(O)c(F)c3)n2)cc1F [Compound 11h, 4-{4-amino-6-[(3-fluoro-4-methoxyphenyl)amino]-1,3,5-triazin-2-yl}-2,6-difluorophenol] | – | – | –
– | 74 ± 1 | – | 30 ± 1 | 93 ± 3 | 79 ± 1 | – | – | – | – | – | COc1ccc(Nc2nc(N)nc(-c3ccc(C(F)(F)F)cc3)n2)cc1F [Compound 11d, N^2-(3-fluoro-4-methoxyphenyl)-6-[4-(trifluoromethyl)phenyl]-1,3,5-triazine-2,4-diamine] | – | – | –
– | 45 ± 5 | – | 50 ± 2 | 52 ± 1 | 72 ± 3 | – | – | – | – | – | COc1ccc(Nc2nc(N)nc(-c3ccc(C#N)cc3)n2)cc1F [Compound 11e, 4-{4-amino-6-[(3-fluoro-4-methoxyphenyl)amino]-1,3,5-triazin-2-yl}benzonitrile] | – | – | –
